Key:
M. tb [1] = type: cell-based, Mycobacterium tuberculosis; conditions: 5 μM concentration against M. tb during 72 h; FIGS. 4a and 4b
M. tb [2] = assay: colony-forming unit (CFU) assay to determine bacterial survival; type: cell-based, Mycobacterium tuberculosis; conditions: compared to the parent OSU-03012 and the other derivatives; FIG. 1
M. smegmatis = type: cell-based; conditions: compared to the parent OSU-03012 and the other derivatives; FIG. 1

CNC(=O)CCc1cc(-c2ccc(-c3ccc(C(F)(F)F)cc3)cc2)n(-c2ccc(NC(=O)N3CCOCC3)cc2)n1 [cpd2-24-3, N-(4-(3-(3-(methylamino)-3-oxopropyl)-5-(4′-(trifluoromethyl)-[1,1′-biphenyl]-4-yl)-1H-pyrazol-1-yl)phenyl)morpholine-4-carboxamide]
in vitro antimycobacterial activity upon screening of cpd2-24 derivatives (M. tb [1]): particularly effective

CNC(=O)CCc1cc(-c2ccc(-c3ccc(C(F)(F)F)cc3)cc2)n(-c2ccc(NC(=O)c3ccncc3)cc2)n1 [cpd2-24-5, N-(4-(3-(3-(methylamino)-3-oxopropyl)-5-(4′-(trifluoromethyl)-[1,1′-biphenyl]-4-yl)-1H-pyrazol-1-yl)phenyl)isonicotinamide]
in vitro antimycobacterial activity upon screening of cpd2-24 derivatives (M. tb [1]): particularly effective

CNC(=O)CCc1cc(-c2ccc(-c3ccc(C(F)(F)F)cc3)cc2)n(-c2ccc(NC(=O)c3ccccn3)cc2)n1 [cpd2-24-6, N-(4-(3-(3-(methylamino)-3-oxopropyl)-5-(4′-(trifluoromethyl)-[1,1′-biphenyl]-4-yl)-1H-pyrazol-1-yl)phenyl)picolinamide]
in vitro antimycobacterial activity upon screening of cpd2-24 derivatives (M. tb [1]): particularly effective

CNC(=O)CCc1cc(-c2ccc(-c3ccc(C(F)(F)F)cc3)cc2)n(-c2ccc(NC(=O)c3cccnc3)cc2)n1 [cpd2-24-7, N-(4-(3-(3-(methylamino)-3-oxopropyl)-5-(4′-(trifluoromethyl)-[1,1′-biphenyl]-4-yl)-1H-pyrazol-1-yl)phenyl)nicotinamide]
in vitro antimycobacterial activity upon screening of cpd2-24 derivatives (M. tb [1]): particularly effective

NS(=O)(=O)Nc1ccc(-n2nc(C(F)(F)F)cc2-c2ccc3c(ccc4ccccc43)c2)cc1 [cpd-2]
killing of M. tb (bacterial survival, CFU) (M. tb [2]): significantly kill
killing of M. smegmatis (bacterial survival, CFU) (M. smegmatis): significantly kill

Source: patent US9457031B2, “Antibacterial protein kinase inhibitors” (priority 2012, dated 2016)
